Reference: US20250230193A1, “CYCLIC COMPOUND HAVING SELECTIVE KRAS INHIBITORY EFFECT ON HRAS AND NRAS” (CHUGAI SEIYAKU KABUSHIKI KAISHA, priority 2022, published 2025)

Assays:
[1] = target: GDP-bound NRAS wild-type protein (Homo sapiens, UniProt P01111); assay: Binding to NRAS by surface plasmon resonance (SPR), Single Cycle Kinetics; settings: SPR, GDP-bound NRAS wild-type vs GDP-bound KRAS wild-type
[2] = target: GDP-bound HRAS wild-type protein (Homo sapiens, UniProt P01112); assay: Binding to HRAS by surface plasmon resonance (SPR), Single Cycle Kinetics; settings: SPR, GDP-bound HRAS wild-type vs GDP-bound KRAS wild-type
Sequence of GDP-bound HRAS wild-type protein (P01112 whole entry): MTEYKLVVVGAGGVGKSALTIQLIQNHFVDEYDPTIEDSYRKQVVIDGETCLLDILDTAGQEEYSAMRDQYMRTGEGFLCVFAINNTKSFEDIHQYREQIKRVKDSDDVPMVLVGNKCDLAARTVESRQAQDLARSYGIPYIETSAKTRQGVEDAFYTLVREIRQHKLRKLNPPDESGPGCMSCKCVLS

Sequence of GDP-bound NRAS wild-type protein (P01111 whole entry): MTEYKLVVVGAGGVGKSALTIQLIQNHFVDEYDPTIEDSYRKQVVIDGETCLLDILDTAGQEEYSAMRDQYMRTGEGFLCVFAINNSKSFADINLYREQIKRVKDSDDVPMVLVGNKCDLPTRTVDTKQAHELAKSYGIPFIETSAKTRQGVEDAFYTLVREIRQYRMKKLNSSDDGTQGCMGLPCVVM

Compound: CCO[C@@H]1C[C@H]2C(=O)NC3(CC(C)(C)C3)C(=O)N(C)[C@@H](C(CC)CC)C(=O)N(C)[C@H](C(=O)N(C)C)CC(=O)N(C)[C@@H](C(C)C)C(=O)N[C@@H]([C@@H](C)CC)C(=O)N(C)CC(=O)N(C)[C@H]3C/C=C\CCN(C3=O)[C@@H](CC3CCC(F)(F)CC3)C(=O)N(C)CC(=O)N[C@@H](CCc3ccc(C(F)(F)F)c(Cl)c3)C(=O)N2C1 [PP2492]
- NRAS/KRAS (ratio of KD value with respect to NRAS to KD value with respect to KRAS) [1]: AA (a compound having 20 or more is denoted as AA)
- HRAS/KRAS (ratio of KD value with respect to HRAS to KD value with respect to KRAS) [2]: A (a compound having 10 or more and less than 20 is denoted as A)

Compound: CCC(CC)[C@H]1C(=O)N(C)[C@H](C(=O)N(C)C)CC(=O)N(C)[C@@H](CC2CC2)C(=O)N[C@@H]([C@@H](C)CC)C(=O)N(C)CC(=O)N(C)[C@H]2C/C=C\CCN(C2=O)[C@@H](CC2CCC(F)(F)CC2)C(=O)N(C)CC(=O)N[C@@H](CCc2ccc(C(F)(F)F)c(OC)c2)C(=O)N2C[C@@H](C)C[C@H]2C(=O)NC2(CC(C)(C)C2)C(=O)N1C [PP2494]
- NRAS/KRAS (ratio of KD value with respect to NRAS to KD value with respect to KRAS) [1]: A (a compound having 10 or more and less than 20 is denoted as A)
- HRAS/KRAS (ratio of KD value with respect to HRAS to KD value with respect to KRAS) [2]: A (a compound having 10 or more and less than 20 is denoted as A)

Compound: CCO[C@@H]1C[C@H]2C(=O)NC3(CC(C)(C)C3)C(=O)N(C)[C@@H](C(CC)CC)C(=O)N(C)[C@H](C(=O)N(C)C)CC(=O)N(C)[C@@H](CC3CC3)C(=O)N[C@@H]([C@@H](C)CC)C(=O)N(C)CC(=O)N(C)[C@H]3C/C=C\CCN(C3=O)[C@@H](CC3CCC(F)(F)CC3)C(=O)N(C)CC(=O)N[C@@H](CCc3ccc(C(F)(F)F)c(Cl)c3)C(=O)N2C1 [PP2495]
- NRAS/KRAS (ratio of KD value with respect to NRAS to KD value with respect to KRAS) [1]: A (a compound having 10 or more and less than 20 is denoted as A)
- HRAS/KRAS (ratio of KD value with respect to HRAS to KD value with respect to KRAS) [2]: A (a compound having 10 or more and less than 20 is denoted as A)

Compound: CCC(CC)[C@H]1C(=O)N(C)[C@H](C(=O)N(C)C)CC(=O)N(C)[C@@H](C(C)C)C(=O)N[C@@H]([C@@H](C)CC)C(=O)N(C)CC(=O)N(C)[C@H]2C/C=C\CCN(C2=O)[C@@H](CC2CCC(F)(F)CC2)C(=O)N(C)CC(=O)N[C@@H](CCc2cc(F)c(C(F)(F)F)c(F)c2)C(=O)N2C[C@@H](C)C[C@H]2C(=O)NC2(CC(C)(C)C2)C(=O)N1C [PP2496]
- NRAS/KRAS (ratio of KD value with respect to NRAS to KD value with respect to KRAS) [1]: A (a compound having 10 or more and less than 20 is denoted as A)
- HRAS/KRAS (ratio of KD value with respect to HRAS to KD value with respect to KRAS) [2]: A (a compound having 10 or more and less than 20 is denoted as A)

Compound: CCC[C@H]1C(=O)N[C@@H]([C@@H](C)CC)C(=O)N(C)CC(=O)N(C)[C@H]2C/C=C\CCN(C2=O)[C@@H](CC2CCC(F)(F)CC2)C(=O)N(C)CC(=O)N[C@@H](CCc2ccc(C(F)(F)F)c(OC)c2)C(=O)N2C[C@@H](C)C[C@H]2C(=O)NC2(CC(C)(C)C2)C(=O)N(C)[C@@H](C(CC)CC)C(=O)N(C)[C@H](C(=O)N(C)C)CC(=O)N1C [PP2497]
- NRAS/KRAS (ratio of KD value with respect to NRAS to KD value with respect to KRAS) [1]: A (a compound having 10 or more and less than 20 is denoted as A)
- HRAS/KRAS (ratio of KD value with respect to HRAS to KD value with respect to KRAS) [2]: A (a compound having 10 or more and less than 20 is denoted as A)

Compound: CCC[C@H]1C(=O)N[C@@H]([C@@H](C)CC)C(=O)N(C)CC(=O)N(C)[C@H]2C/C=C\CCN(C2=O)[C@@H](CC2CCC(F)(F)CC2)C(=O)N(C)CC(=O)N[C@@H](CCc2ccc(C(F)(F)F)c(Cl)c2)C(=O)N2C[C@H](OCC)C[C@H]2C(=O)NC2(CC(C)(C)C2)C(=O)N(C)[C@@H](C(CC)CC)C(=O)N(C)[C@H](C(=O)N(C)C)CC(=O)N1C [PP2498]
- NRAS/KRAS (ratio of KD value with respect to NRAS to KD value with respect to KRAS) [1]: A (a compound having 10 or more and less than 20 is denoted as A)
- HRAS/KRAS (ratio of KD value with respect to HRAS to KD value with respect to KRAS) [2]: A (a compound having 10 or more and less than 20 is denoted as A)

Compound: CCC(CC)[C@H]1C(=O)N(C)[C@H](C(=O)N(C)C)CC(=O)N(C)[C@@H](CC2CC2)C(=O)N[C@@H]([C@@H](C)CC)C(=O)N(C)CC(=O)N(C)[C@H]2C/C=C\CCN(C2=O)[C@@H](CC2CCC(F)(F)CC2)C(=O)N(C)CC(=O)N[C@@H](CCc2cc(F)c(C(F)(F)F)c(F)c2)C(=O)N2C[C@@H](C)C[C@H]2C(=O)NC2(CC(C)(C)C2)C(=O)N1C [PP2500]
- NRAS/KRAS (ratio of KD value with respect to NRAS to KD value with respect to KRAS) [1]: A (a compound having 10 or more and less than 20 is denoted as A)
- HRAS/KRAS (ratio of KD value with respect to HRAS to KD value with respect to KRAS) [2]: A (a compound having 10 or more and less than 20 is denoted as A)

Compound: CCCOC[C@H]1C(=O)N[C@@H]([C@@H](C)CC)C(=O)N(C)CC(=O)N(C)[C@H]2C/C=C\CCN(C2=O)[C@@H](CC2CCCCC2)C(=O)N(C)CC(=O)N[C@@H](CCc2cc(F)c(C(F)(F)F)c(F)c2)C(=O)N2C[C@H](OCC)C[C@H]2C(=O)NC2(CC(C)(C)C2)C(=O)N(C)[C@@H](C(CC)CC)C(=O)N(C)[C@H](C(=O)N(C)C)CC(=O)N1C [PP2501]
- NRAS/KRAS (ratio of KD value with respect to NRAS to KD value with respect to KRAS) [1]: AA (a compound having 20 or more is denoted as AA)
- HRAS/KRAS (ratio of KD value with respect to HRAS to KD value with respect to KRAS) [2]: A (a compound having 10 or more and less than 20 is denoted as A)

Compound: CC[C@H](C)[C@@H]1NC(=O)[C@H](COC)N(C)C(=O)C[C@@H](C(=O)N(C)C)N(C)C(=O)[C@H](C2CCCC2)N(C)C(=O)C2(CC(C)(C)C2)NC(=O)[C@@H]2C[C@H](C)CN2C(=O)[C@H](CCc2ccc(C(F)(F)F)c(Cl)c2)NC(=O)CN(C)C(=O)[C@H](Cc2ccc(C)cc2)N2CC/C=C\C[C@@H](C2=O)N(C)C(=O)CN(C)C1=O [PP2502]
- NRAS/KRAS (ratio of KD value with respect to NRAS to KD value with respect to KRAS) [1]: A (a compound having 10 or more and less than 20 is denoted as A)
- HRAS/KRAS (ratio of KD value with respect to HRAS to KD value with respect to KRAS) [2]: A (a compound having 10 or more and less than 20 is denoted as A)

Compound: CCOC[C@H]1C(=O)N[C@@H]([C@@H](C)CC)C(=O)N(C)CC(=O)N(C)[C@H]2C/C=C\CCN(C2=O)[C@@H](Cc2ccc(C)cc2)C(=O)N(C)CC(=O)N[C@@H](CCc2ccc(C(F)(F)F)c(OC)c2)C(=O)N2C[C@@H](C)C[C@H]2C(=O)NC2(CC(C)(C)C2)C(=O)N(C)[C@@H](C2CCCC2)C(=O)N(C)[C@H](C(=O)N(C)C)CC(=O)N1C [PP2505]
- NRAS/KRAS (ratio of KD value with respect to NRAS to KD value with respect to KRAS) [1]: A (a compound having 10 or more and less than 20 is denoted as A)
- HRAS/KRAS (ratio of KD value with respect to HRAS to KD value with respect to KRAS) [2]: B (a compound having 3 or more and less than 10 is denoted as B)

Compound: CC[C@H](C)[C@@H]1NC(=O)[C@H](COC)N(C)C(=O)C[C@@H](C(=O)N(C)CC)N(C)C(=O)[C@H](C2CCCC2)N(C)C(=O)C2(CC(C)(C)C2)NC(=O)[C@@H]2C[C@H](C)CN2C(=O)[C@H](CCc2ccc(C(F)(F)F)c(Cl)c2)NC(=O)CN(C)C(=O)[C@H](Cc2ccc(C)cc2)N2CC/C=C\C[C@@H](C2=O)N(C)C(=O)CN(C)C1=O [PP2506]
- NRAS/KRAS (ratio of KD value with respect to NRAS to KD value with respect to KRAS) [1]: A (a compound having 10 or more and less than 20 is denoted as A)
- HRAS/KRAS (ratio of KD value with respect to HRAS to KD value with respect to KRAS) [2]: A (a compound having 10 or more and less than 20 is denoted as A)

Compound: CCO[C@@H]1C[C@H]2C(=O)NC3(CC(C)(C)C3)C(=O)N(C)[C@@H](C3CCCC3)C(=O)N(C)[C@H](C(=O)N(C)CC)CC(=O)N(C)[C@@H](COC)C(=O)N[C@@H]([C@@H](C)CC)C(=O)N(C)CC(=O)N(C)[C@H]3C/C=C\CCN(C3=O)[C@@H](Cc3ccc(C)cc3)C(=O)N(C)CC(=O)N[C@@H](CCc3ccc(C(F)(F)F)c(Cl)c3)C(=O)N2C1 [PP2507]
- NRAS/KRAS (ratio of KD value with respect to NRAS to KD value with respect to KRAS) [1]: AA (a compound having 20 or more is denoted as AA)
- HRAS/KRAS (ratio of KD value with respect to HRAS to KD value with respect to KRAS) [2]: A (a compound having 10 or more and less than 20 is denoted as A)

Compound: CCC[C@H]1C(=O)N[C@@H](CC(C)C)C(=O)N(C2CC2)CC(=O)N(C)[C@H]2C/C=C\CCN(C2=O)[C@@H](Cc2ccc(C)cc2)C(=O)N(C)CC(=O)N[C@@H](CCc2cc(F)c(C(F)(F)F)c(F)c2)C(=O)N2C[C@H](OCC)C[C@H]2C(=O)NC2(CC(C)(C)C2)C(=O)N(C)[C@@H](C2CCCC2)C(=O)N(C)[C@H](C(=O)N(C)C)CC(=O)N1C [PP2508]
- NRAS/KRAS (ratio of KD value with respect to NRAS to KD value with respect to KRAS) [1]: A (a compound having 10 or more and less than 20 is denoted as A)
- HRAS/KRAS (ratio of KD value with respect to HRAS to KD value with respect to KRAS) [2]: B (a compound having 3 or more and less than 10 is denoted as B)

Compound: CCC[C@H]1C(=O)N[C@@H](CC(C)C)C(=O)N(C2CC2)CC(=O)N(C)[C@H]2C/C=C\CCN(C2=O)[C@@H](Cc2ccc(C)cc2)C(=O)N(C)CC(=O)N[C@@H](CCc2ccc(C(F)(F)F)c(OC)c2)C(=O)N2C[C@H](OCC)C[C@H]2C(=O)NC2(CC(C)(C)C2)C(=O)N(C)[C@@H](C2CCCC2)C(=O)N(C)[C@H](C(=O)N(C)C)CC(=O)N1C [PP2510]
- NRAS/KRAS (ratio of KD value with respect to NRAS to KD value with respect to KRAS) [1]: A (a compound having 10 or more and less than 20 is denoted as A)
- HRAS/KRAS (ratio of KD value with respect to HRAS to KD value with respect to KRAS) [2]: B (a compound having 3 or more and less than 10 is denoted as B)

Compound: CC[C@H](C)[C@@H]1NC(=O)[C@H](COC)N(C)C(=O)C[C@@H](C(=O)N(C)C)N(C)C(=O)[C@H](C2CCCC2)N(C)C(=O)C2(CC(C)(C)C2)NC(=O)[C@@H]2C[C@@H](OC(C)C)CN2C(=O)[C@H](CCc2cc(F)c(C(F)(F)F)c(F)c2)NC(=O)CN(C)C(=O)[C@H](CC2CCCCC2)N2CC/C=C\C[C@@H](C2=O)N(C)C(=O)CN(C2CC2)C1=O [PP2511]
- NRAS/KRAS (ratio of KD value with respect to NRAS to KD value with respect to KRAS) [1]: A (a compound having 10 or more and less than 20 is denoted as A)
- HRAS/KRAS (ratio of KD value with respect to HRAS to KD value with respect to KRAS) [2]: A (a compound having 10 or more and less than 20 is denoted as A)
